According to paper PMC9120017, “Inhibition mechanism of the chloride channel TMEM16A by the pore blocker 1PBC” (Nature Communications, 2022):
Where two headings read alike, the source gives them in different places.

Molecular target: T1, mouse TMEM16A mutant T539A (Mus musculus, UniProt Q8BHY3, T539A)
T1 construct: expressed in transfected cells; host or cells: HEK293T
T1 sequence (Q8BHY3 1-960 T539A): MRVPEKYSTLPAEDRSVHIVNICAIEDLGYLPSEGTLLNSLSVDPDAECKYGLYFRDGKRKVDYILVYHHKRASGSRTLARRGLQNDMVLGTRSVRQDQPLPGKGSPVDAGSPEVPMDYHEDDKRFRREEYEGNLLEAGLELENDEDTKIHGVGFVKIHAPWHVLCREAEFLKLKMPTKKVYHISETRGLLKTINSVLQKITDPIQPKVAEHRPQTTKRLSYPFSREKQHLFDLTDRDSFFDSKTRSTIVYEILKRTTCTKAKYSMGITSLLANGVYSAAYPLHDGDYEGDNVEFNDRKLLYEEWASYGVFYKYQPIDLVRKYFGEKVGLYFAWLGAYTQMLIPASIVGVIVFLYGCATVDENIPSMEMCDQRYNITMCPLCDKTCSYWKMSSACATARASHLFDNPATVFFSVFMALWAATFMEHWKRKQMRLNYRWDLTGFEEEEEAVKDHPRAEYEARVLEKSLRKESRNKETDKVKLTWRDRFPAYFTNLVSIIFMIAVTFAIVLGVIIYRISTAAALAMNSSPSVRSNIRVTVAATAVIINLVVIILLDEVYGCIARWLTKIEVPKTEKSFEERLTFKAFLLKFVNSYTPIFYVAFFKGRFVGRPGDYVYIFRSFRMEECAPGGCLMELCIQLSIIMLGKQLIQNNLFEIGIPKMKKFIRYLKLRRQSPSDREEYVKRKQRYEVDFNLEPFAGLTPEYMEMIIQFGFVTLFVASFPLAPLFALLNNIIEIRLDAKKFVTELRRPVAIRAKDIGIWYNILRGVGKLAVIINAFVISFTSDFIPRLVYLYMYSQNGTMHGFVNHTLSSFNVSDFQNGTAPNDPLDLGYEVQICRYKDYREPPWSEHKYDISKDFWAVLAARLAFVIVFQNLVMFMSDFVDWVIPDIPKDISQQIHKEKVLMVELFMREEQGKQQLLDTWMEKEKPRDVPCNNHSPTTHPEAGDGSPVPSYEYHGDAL
Assay: Inside-out patch recording of 1PBC block, mutant T539A
Format: cell-based
Conditions: for remaining activity at 30 µM: 1PBC 30; for remaining activity at 30 µM / remaining activity at 100 µM: read-out: fraction of unblocked current; for remaining activity at 100 µM: 1PBC 100
Description: HEK293T cells (ATCC CRL-1573) were maintained in Dulbecco’s modified Eagle’s medium (DMEM; Sigma-Aldrich) supplemented with 10 U ml^−1 penicillin, 0.1 mg ml^−1 streptomycin (Sigma-Aldrich), 2 mM L-glutamine (Sigma-Aldrich), and 10% FBS (Sigma-Aldrich) in a humidified atmosphere containing 5% CO2 at 37 °C. HEK293S GnTI^− cells (ATCC CRL-3022) were maintained in HyClone HyCell TransFx-H medium (GE Healthcare) supplemented with 10 U ml^−1 penicillin, 0.1 mg ml^−1 streptomycin, 4 mM L-glutamine, 0.15% poloxamer 188 (Sigma-Aldrich), and 1% FBS in an atmosphere containing 5% CO2 at 185 rpm at 37 °C. The ac splice variant of mouse TMEM16A (UniProt ID: Q8BHY3), mouse TMEM16B (UniProt ID: Q8CFW1), or mouse TMEM16F (UniProt ID: Q6P9J9) bearing a 3C cleavage site, a Venus YFP, a Myc tag, and a Streptavidin-binding peptide (SBP) downstream of the open reading frame in a modified pcDNA3.1 vector (Invitrogen) were used as described previously[21],[31]. Mutations were introduced using a modified QuikChange method[58] and were verified by sequencing.
HEK293T cells were transfected with 3–4 μg DNA per 6 cm Petri dish using the calcium phosphate co-precipitation method and were used within 24–96 h after transfection. Recordings were performed on inside-out patches excised from HEK293T cells expressing the construct of interest. Patch pipettes were pulled from borosilicate glass capillaries (O.D. 1.5 mm, I.D. 0.86 mm, Sutter Instrument) and were fire-polished with a microforge (Narishige) before use. Pipette resistance was typically 3–8 MΩ when filled with the recording solutions detailed below. Seal resistance was typically 4 GΩ or higher. Voltage-clamp recordings were made using Axopatch 200B, Digidata 1550, and Clampex 10.7 (Molecular Devices). Analog signals were filtered with the in-built 4-pole Bessel filter at 10 kHz and were digitized at 20 kHz. Solution exchange was achieved using a gravity-fed system through a theta glass pipette mounted on an ultra-fast piezo-driven stepper (Siskiyou). […] All recordings were performed at 20 °C.
A symmetrical ionic condition was used throughout. Stock solution with Ca^2+-EGTA contained 150 mM NaCl, 5.99 mM Ca(OH)2, 5 mM EGTA, and 10 mM HEPES at pH 7.40. Stock solution with EGTA contained 150 mM NaCl, 5 mM EGTA, and 10 mM HEPES at pH 7.40. Free Ca^2+ concentrations were adjusted by mixing the stock solutions at the required ratios calculated using the WEBMAXC program (http://web.stanford.edu/~cpatton/webmaxcS.htm). Patch pipettes were filled with the stock solution with Ca^2+-EGTA, which has a free Ca^2+ concentration of 1 mM. 1PBC (ChemBridge) stock was reconstituted in anhydrous DMSO (Sigma-Aldrich) at 100 mM and stored at −20 °C. Working solutions with 1PBC were prepared by serial dilution. Unless otherwise stated, experiments were performed at a saturating Ca^2+ concentration as shown in Supplementary Table 1 and the primary data were corrected for current rundown as described previously[21],[25].
Concentration-response relations, obtained from the ratio of the I-V plots before and after the application of the blocker, were fitted to the Hill equation,1 I/Imax=1/1+IC50/[blocker]^h where I/Imax is the normalized current responses, IC50 defines the concentration at which inhibition is at its half-maximum, and h is the Hill coefficient.

N#Cc1c(C(F)(F)F)cc(O)n2c1nc1ccccc12 [1PBC]
remaining activity at 30 µM (-60 mV): 46.1%
remaining activity at 30 µM (-80 mV): 49.4%
remaining activity at 30 µM (-100 mV): 53.7%
remaining activity at 30 µM (-120 mV): 55.9%
remaining activity at 30 µM (-140 mV): 58.7%
remaining activity at 100 µM (0 mV): 14.3%
remaining activity at 100 µM (20 mV): 11.9%
remaining activity at 100 µM (40 mV): 11.3%
remaining activity at 100 µM (60 mV): 10%
remaining activity at 100 µM (80 mV): 8.95%
remaining activity at 100 µM (100 mV): 7.58%
remaining activity at 100 µM (120 mV): 8.07%
remaining activity at 100 µM (140 mV): 8.23%
remaining activity at 100 µM (-20 mV): 16.6%
remaining activity at 100 µM (-40 mV): 18.5%
remaining activity at 100 µM (-60 mV): 21.3%
remaining activity at 100 µM (-80 mV): 25%
remaining activity at 100 µM (-100 mV): 28.2%
remaining activity at 100 µM (-120 mV): 30.6%
remaining activity at 100 µM (-140 mV): 34%
IC50 (20 mV, 2 µM Ca2+): 12.9 µM
IC50 (40 mV, 2 µM Ca2+): 11 µM
IC50 (60 mV, 2 µM Ca2+): 9.86 µM
log-fold IC50 (change of mutant vs WT) (80 mV): 0.6239
IC50 (80 mV, 2 µM Ca2+): 9.02 µM
IC50 (100 mV, 2 µM Ca2+): 8.74 µM
IC50 (120 mV, 2 µM Ca2+): 8.83 µM
IC50 (140 mV, 2 µM Ca2+): 9.45 µM
IC50 (-20 mV, 2 µM Ca2+): 17.3 µM
IC50 (-40 mV, 2 µM Ca2+): 20.5 µM
IC50 (-60 mV, 2 µM Ca2+): 24.4 µM
IC50 (-80 mV, 2 µM Ca2+): 28.9 µM
IC50 (-100 mV, 2 µM Ca2+): 34.3 µM
IC50 (-120 mV, 2 µM Ca2+): 38.6 µM
IC50 (-140 mV, 2 µM Ca2+): 44.4 µM
IC50 (T539A, V 0 mV): 14.9 µM
IC50 (T539A, V 20 mV): 12.9 µM
IC50 (T539A, V 40 mV): 11 µM
IC50 (T539A, V 60 mV): 9.86 µM
IC50 (T539A, V 80 mV): 9.02 µM
IC50 (T539A, V 100 mV): 8.74 µM
IC50 (T539A, V 120 mV): 8.83 µM
IC50 (T539A, V 140 mV): 9.45 µM
IC50 (T539A, V -20 mV): 17.3 µM
IC50 (T539A, V -40 mV): 20.5 µM
IC50 (T539A, V -60 mV): 24.4 µM
IC50 (T539A, V -80 mV): 28.9 µM
IC50 (T539A, V -100 mV): 34.3 µM
IC50 (T539A, V -120 mV): 38.6 µM
IC50 (T539A, V -140 mV): 44.4 µM
